From ChEMBL document CHEMBL5506069, “A Unique Hybridization Route to Access Hydrazylnaphthalimidols as Novel Structural Scaffolds of Multitargeting Broad-Spectrum Antifungal Candidates” (J Med Chem, 2024) come the findings set out here.

≈ marks a conversion by molar mass, not a printed value.

What all share (type): functional
Test [1] deals with Candida albicans. The test can be described thus: Antifungal activity against Candida albicans assessed as inhibition of fungal growth incubated for 24 hrs by CLSI based microbroth dilution method. (In broth dilution the organism is exposed to a series of concentrations in liquid medium.)
The test system of a further test is Candida tropicalis. Kind of test: Antifungal activity against Candida tropicalis assessed as inhibition of fungal growth incubated for 24 hrs by CLSI based microbroth dilution method.
Another test deals with Aspergillus fumigatus. The test can be described thus: Antifungal activity against Aspergillus fumigatus assessed as inhibition of fungal growth incubated for 24 hrs by CLSI based microbroth dilution method.
For the next test, the system named is Candida parapsilosis. Kind of test: Antifungal activity against Candida parapsilosis ATCC 22019 assessed as inhibition of fungal growth incubated for 24 hrs by CLSI based microbroth dilution method. As to conditions: Lodderomyces parapsilosis.
Test [2] relates to Candida albicans. The test can be described thus: Antifungal activity against Candida albicans ATCC 90023 assessed as inhibition of fungal growth incubated for 24 hrs by CLSI based microbroth dilution method.

In the case of `O=C1c2cccc3c(N/N=C/c4nccs4)ccc(c23)C(=O)N1CCO`, the MIC with Candida albicans [1] stood at 699 µM (≈ 256 µg/mL); in the test with Candida tropicalis it was 175 µM (≈ 64.1 µg/mL); in the test with Aspergillus fumigatus it was 350 µM (≈ 128 µg/mL); in the test with Candida parapsilosis, 175 µM (≈ 64.1 µg/mL); in the test with Candida albicans [2] it was 350 µM (≈ 128 µg/mL).

For the compound `O=C1c2cccc3c(N/N=C/c4cc(Cl)ccc4O)ccc(c23)C(=O)N1CCO`, the MIC with Candida albicans [1] worked out at 626 µM (≈ 257 µg/mL); in the test with Candida tropicalis, 313 µM (≈ 128 µg/mL); in the test on Aspergillus fumigatus it was 313 µM (≈ 128 µg/mL); with Candida parapsilosis, 626 µM (≈ 257 µg/mL); with Candida albicans [2], 313 µM (≈ 128 µg/mL).

Regarding `CCCCc1nc(Cl)c(/C=N/Nc2ccc3c4c(cccc24)C(=O)N(CCO)C3=O)n1Cc1ccc(F)cc1`, the MIC is 58 µM (≈ 31.8 µg/mL) in the test on Candida albicans [1]; 58 µM (≈ 31.8 µg/mL) with Candida tropicalis; 117 µM (≈ 64.1 µg/mL) with Aspergillus fumigatus; 58 µM (≈ 31.8 µg/mL) in the test with Candida parapsilosis; 4 µM (≈ 2.19 µg/mL) with Candida albicans [2].

As to `C/C(Cn1c([N+](=O)[O-])cnc1C)=N\Nc1ccc2c3c(cccc13)C(=O)N(c1ccc(C(F)(F)F)cc1Cl)C2=O`, the MIC in the test on Candida albicans [1] was 477 µM (≈ 272 µg/mL); in the test with Candida tropicalis it was 477 µM (≈ 272 µg/mL); in the test on Aspergillus fumigatus it was 477 µM (≈ 272 µg/mL); in the test on Candida parapsilosis, 239 µM (≈ 136 µg/mL); with Candida albicans [2] it was 954 µM (≈ 545 µg/mL).

Consider `O=C1c2cccc3c(N/N=C/c4cccnc4)ccc(c23)C(=O)N1CCO`, for which the MIC was found to be 711 µM (≈ 256 µg/mL) in the test with Candida albicans [1]; 355 µM (≈ 128 µg/mL) in the test on Candida tropicalis; 355 µM (≈ 128 µg/mL) in the test with Aspergillus fumigatus; 89 µM (≈ 32.1 µg/mL) in the test with Candida parapsilosis; 355 µM (≈ 128 µg/mL) in the test on Candida albicans [2].

For the compound `C=CCN1C(=O)c2cccc3c(N/N=C(\C)Cn4c([N+](=O)[O-])cnc4C)ccc(c23)C1=O`, the minimal inhibitory concentration (MIC) in the test on Candida albicans [1] amounted to 1190 µM (≈ 515 µg/mL); with Candida tropicalis, 1190 µM (≈ 515 µg/mL); with Aspergillus fumigatus it was 595 µM (≈ 257 µg/mL); in the test on Candida parapsilosis, 1190 µM (≈ 515 µg/mL); with Candida albicans [2] it was 1190 µM (≈ 515 µg/mL).

Regarding `C/C(Cn1c([N+](=O)[O-])cnc1C)=N\Nc1ccc2c3c(cccc13)C(=O)N(CCO)C2=O`, the MIC with Candida albicans [1] was 1170 µM (≈ 512 µg/mL); in the test with Candida tropicalis it was 1170 µM (≈ 512 µg/mL); with Aspergillus fumigatus, 587 µM (≈ 256 µg/mL); with Candida parapsilosis, 1170 µM (≈ 512 µg/mL); in the test with Candida albicans [2], 1170 µM (≈ 512 µg/mL).

On to `C/C(Cn1c([N+](=O)[O-])cnc1C)=N\Nc1ccc2c3c(cccc13)C(=O)N(Cc1ccc(F)cc1)C2=O`, for which the MIC with Candida albicans [1], in the test with Candida tropicalis, with Aspergillus fumigatus, in the test with Candida parapsilosis and in the test with Candida albicans [2] was 1020 µM (≈ 512 µg/mL) in each case.

For the compound `O=C1c2cccc3c(N/N=C/C=C/c4ccc([N+](=O)[O-])o4)ccc(c23)C(=O)N1CCO`, the MIC with Candida albicans [1] was determined as 9 µM (≈ 3.78 µg/mL); with Candida tropicalis, 38 µM (≈ 16 µg/mL); in the test on Aspergillus fumigatus, 76 µM (≈ 31.9 µg/mL); in the test on Candida parapsilosis it was 152 µM (≈ 63.9 µg/mL); with Candida albicans [2], 38 µM (≈ 16 µg/mL).

Take `CCCN1C(=O)c2cccc3c(N/N=C(\C)Cn4c([N+](=O)[O-])cnc4C)ccc(c23)C1=O`: the MIC with Candida albicans [1], in the test on Candida tropicalis, in the test with Aspergillus fumigatus, in the test on Candida parapsilosis and in the test on Candida albicans [2] was 1180 µM (≈ 512 µg/mL) each time.

In the case of `CCCCc1nc(Cl)c(/C=N/Nc2ccc3c4c(cccc24)C(=O)N(CCO)C3=O)n1CC(=O)OCC`, the MIC came to 30 µM (≈ 15.8 µg/mL) in the test on Candida albicans [1]; 2 µM (≈ 1.05 µg/mL) in the test on Candida tropicalis; 61 µM (≈ 32.1 µg/mL) in the test on Aspergillus fumigatus; 244 µM (≈ 128 µg/mL) in the test with Candida parapsilosis; 61 µM (≈ 32.1 µg/mL) with Candida albicans [2].

On to `CCCCCN1C(=O)c2cccc3c(N/N=C(\C)Cn4c([N+](=O)[O-])cnc4C)ccc(c23)C1=O`, for which the MIC was 1110 µM (≈ 512 µg/mL) in the test with Candida albicans [1]; 1110 µM (≈ 512 µg/mL) with Candida tropicalis; 554 µM (≈ 256 µg/mL) in the test with Aspergillus fumigatus; 554 µM (≈ 256 µg/mL) in the test on Candida parapsilosis; 1110 µM (≈ 512 µg/mL) with Candida albicans [2].

Consider `CCCCc1nc(Cl)c(/C=N/Nc2ccc3c4c(cccc24)C(=O)N(CCO)C3=O)[nH]1`, for which the MIC in the test with Candida albicans [1] came out at 36 µM (≈ 15.8 µg/mL); with Candida tropicalis, 73 µM (≈ 32.1 µg/mL); in the test with Aspergillus fumigatus, 73 µM (≈ 32.1 µg/mL); in the test on Candida parapsilosis, 291 µM (≈ 128 µg/mL); in the test with Candida albicans [2], 18 µM (≈ 7.92 µg/mL).

On to `O=C1c2cccc3c(N/N=C/c4ccccn4)ccc(c23)C(=O)N1CCO`, for which the MIC in the test with Candida albicans [1] was 355 µM (≈ 128 µg/mL); in the test on Candida tropicalis it was 711 µM (≈ 256 µg/mL); in the test with Aspergillus fumigatus it was 355 µM (≈ 128 µg/mL); with Candida parapsilosis, 711 µM (≈ 256 µg/mL); with Candida albicans [2], 355 µM (≈ 128 µg/mL).

Consider `CCN1C(=O)c2cccc3c(N/N=C(\C)Cn4c([N+](=O)[O-])cnc4C)ccc(c23)C1=O`, for which the MIC in the test with Candida albicans [1], with Candida tropicalis, in the test with Aspergillus fumigatus, in the test on Candida parapsilosis and in the test with Candida albicans [2] was 1220 µM (≈ 512 µg/mL) each time.

Turning to `NN1C(=O)c2cccc3c(N/N=C/c4ccc([N+](=O)[O-])o4)ccc(c23)C1=O`, the MIC turned out to be 21 µM (≈ 7.67 µg/mL) with Candida albicans [1]; 5 µM (≈ 1.83 µg/mL) in the test with Candida tropicalis; 10 µM (≈ 3.65 µg/mL) in the test on Aspergillus fumigatus; 21 µM (≈ 7.67 µg/mL) in the test with Candida parapsilosis; 5 µM (≈ 1.83 µg/mL) in the test on Candida albicans [2].

As to `CCCCc1nc(Cl)c(/C=N/Nc2ccc3c4c(cccc24)C(=O)N(CCO)C3=O)n1CCC`, the MIC with Candida albicans [1] amounted to 133 µM (≈ 64.1 µg/mL); with Candida tropicalis, 67 µM (≈ 32.3 µg/mL); in the test on Aspergillus fumigatus, 33 µM (≈ 15.9 µg/mL); with Candida parapsilosis it was 266 µM (≈ 128 µg/mL); with Candida albicans [2], 67 µM (≈ 32.3 µg/mL).

By MIC is commonly meant the lowest concentration that inhibits growth of the organism.
